Assays:
[1] = biological target: T1, Cystic fibrosis transmembrane conductance regulator (Homo sapiens, UniProt P13569); test: Activation of wildtype CFTR (unknown origin) expressed in CHO cells; type: cell-based
[2] = (§1) In vivo activation CFTR expressed in wild-type CD1 mouse assessed as hyperpolarization of ocular surface by measuring potential difference at 1 to 10 uM; type: functional; details: dose 1-10 µM
[3] = biological target: T1, Cystic fibrosis transmembrane conductance regulator; test: Activation of wildtype CFTR in human Calu-3 cells; type: cell-based
[4] = biological target: T1, Cystic fibrosis transmembrane conductance regulator; test: Activation of human CFTR expressed in rat FRT cells; type: cell-based
[5] = system: Mus musculus; test: as §1; type: functional; details: dose 1-10 µM
[6] = biological target: T1, Cystic fibrosis transmembrane conductance regulator; test: Activation of CFTR (unknown origin)
[7] = biological target: T1, Cystic fibrosis transmembrane conductance regulator; test: Binding affinity at human wildtype CFTR assessed as inhibition constant by fluorescence based analysis
[8] = system: Cystic fibrosis transmembrane conductance regulator (Homo sapiens), P13569 [G551D]; test: Activation of CFTR G551D mutant (unknown origin); details: filed as opener
Sequence of Cystic fibrosis transmembrane conductance regulator (Homo sapiens), P13569 [G551D] (P13569 whole entry G551D): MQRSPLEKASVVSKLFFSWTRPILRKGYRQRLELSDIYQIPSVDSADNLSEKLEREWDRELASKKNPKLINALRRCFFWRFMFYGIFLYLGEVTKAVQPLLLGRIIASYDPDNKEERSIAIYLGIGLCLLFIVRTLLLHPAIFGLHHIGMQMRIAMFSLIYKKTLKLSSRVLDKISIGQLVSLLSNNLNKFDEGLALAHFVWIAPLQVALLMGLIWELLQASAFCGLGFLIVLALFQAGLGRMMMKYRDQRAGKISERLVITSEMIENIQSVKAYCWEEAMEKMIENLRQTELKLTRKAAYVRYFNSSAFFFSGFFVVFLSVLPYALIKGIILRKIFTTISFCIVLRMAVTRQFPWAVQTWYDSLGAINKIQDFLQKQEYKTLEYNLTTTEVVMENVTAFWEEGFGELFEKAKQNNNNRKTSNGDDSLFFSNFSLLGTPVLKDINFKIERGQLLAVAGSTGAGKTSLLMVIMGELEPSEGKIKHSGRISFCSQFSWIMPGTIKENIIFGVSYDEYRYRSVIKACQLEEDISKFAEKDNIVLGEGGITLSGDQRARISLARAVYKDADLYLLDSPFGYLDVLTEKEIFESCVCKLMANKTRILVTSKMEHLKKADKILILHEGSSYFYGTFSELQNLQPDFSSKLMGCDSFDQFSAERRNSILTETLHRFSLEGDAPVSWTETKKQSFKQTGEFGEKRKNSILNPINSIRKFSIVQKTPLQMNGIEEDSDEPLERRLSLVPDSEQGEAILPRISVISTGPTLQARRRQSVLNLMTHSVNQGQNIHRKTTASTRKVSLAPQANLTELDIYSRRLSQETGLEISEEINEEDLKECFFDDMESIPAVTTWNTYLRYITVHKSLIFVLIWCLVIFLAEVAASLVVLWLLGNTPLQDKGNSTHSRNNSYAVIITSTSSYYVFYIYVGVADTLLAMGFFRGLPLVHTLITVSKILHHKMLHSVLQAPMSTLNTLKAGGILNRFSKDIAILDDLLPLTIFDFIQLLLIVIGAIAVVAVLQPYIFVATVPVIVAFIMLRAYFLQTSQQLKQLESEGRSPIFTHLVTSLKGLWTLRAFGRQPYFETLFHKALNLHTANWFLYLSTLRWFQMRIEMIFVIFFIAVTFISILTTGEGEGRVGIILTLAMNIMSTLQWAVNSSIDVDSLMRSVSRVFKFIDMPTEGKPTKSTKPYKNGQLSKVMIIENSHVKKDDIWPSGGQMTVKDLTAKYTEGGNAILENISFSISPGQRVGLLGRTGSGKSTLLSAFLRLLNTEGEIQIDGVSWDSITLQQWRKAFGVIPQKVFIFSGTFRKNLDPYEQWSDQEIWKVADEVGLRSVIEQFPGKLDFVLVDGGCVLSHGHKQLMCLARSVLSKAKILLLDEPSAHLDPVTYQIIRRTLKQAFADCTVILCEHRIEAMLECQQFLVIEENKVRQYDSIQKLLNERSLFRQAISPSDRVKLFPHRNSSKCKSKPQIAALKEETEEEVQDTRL

[9] = biological target: T1, Cystic fibrosis transmembrane conductance regulator; test: Activation of human wildtype CFTR expressed in rat FRT cells by patch clamp analysis; type: cell-based
[10] = biological target: T1, Cystic fibrosis transmembrane conductance regulator; test: Activation of human wildtype CFTR

T1 sequence (P13569 whole entry): as the sequence (P13569 whole entry G551D) above, with D551G counted along it

| SMILES | EC50 [4] | Activity [2] | also measured |
| --- | --- | --- | --- |
| CCCn1cnc2c1N=CN1C2=N[C@](C)(C(=O)O)[C@@H](O)[C@@]1(C)O |  |  | EC50 [1]: 2100 nM |
| CNc1nc(Nc2ccc([N+](=O)[O-])cc2)nc(OCC(F)(F)C(F)F)n1 |  | -10 mV |  |
| CC(C)Cn1c(=O)c2[nH]cnc2n(C)c1=O |  |  | EC50 [3]: 100000 nM |
| CC(C)Cn1c(=O)n(C)c(=O)c2[nH]cnc21 [ISOBUTYLMETHYLXANTHINE] |  |  | EC50 [3]: 45000 nM |
| CCOc1ccccc1CC(=O)Nc1nnc(Cc2ccc(OC)c(OC)c2)s1 | 377 nM | -3.4 mV |  |
| CC(C)(C)c1cc(C(C)(C)C)c(NC(=O)c2c[nH]c3ccccc3c2=O)cc1O |  |  | Activity [5]: -1.8 mV |
| CC(C)c1ccc(NC(=O)[C@H](c2ccccc2)N(C)C(=O)Cc2c[nH]c3ccccc23)cc1 |  |  | EC50 [6]: 70 nM |
| O=C(c1cccs1)N1N=C(c2ccccc2)CC1c1ccccc1[N+](=O)[O-] (stereo unspecified) | 385 nM | -4.1 mV |  |
| O=c1cc(-c2ccc(O)cc2)oc2cc(O)cc(O)c12 [APIGENIN] |  |  | Ki [7]: 4800 nM |
| CCCn1cnc2c1N=CN1C2=N[C@](C)(C(=O)O)[C@H](O)[C@@]1(C)O |  |  | EC50 [1]: 2900 nM |
| CCN(CC)c1nc(Nc2ccccc2)nc(OC(C(F)(F)F)C(F)(F)F)n1 |  | -8.5 mV |  |
| O=c1cc(-c2ccncc2)oc2c1cc(-c1ccco1)c1ccccc12 |  |  | Ki [7]: 1700 nM |
| CC/N=C1\S/C(=C\c2ccc3c(c2)OCO3)C(=O)N1CC | 2000 nM | -2.5 mV |  |
| CCCCc1c(-c2ccc(O)cc2)[nH]c2nccnc12 |  |  | Activity [8]: 1.5 nM |
| CNc1nc(Nc2ccccc2)nc(OCC(F)(F)C(F)F)n1 |  |  | EC50 [10]: ~30 nM |
| COc1ccc(Cc2nnc(NC(=O)Cc3cccs3)s2)cc1OC | 685 nM | -2.5 mV |  |
| CNc1nc(Nc2cccc([N+](=O)[O-])c2)nc(OCC(F)(F)F)n1 | 400 nM | -7.4 mV |  |

Second part, led by results:

| EC50 [4] | SMILES | Activity [2] | also measured |
| --- | --- | --- | --- |
| 571 nM | COc1ccc(Cc2nnc(NC(=O)Cc3c(F)cccc3Cl)s2)cc1OC | -3.1 mV |  |
| 340 nM | COc1ccccc1CC(=O)Nc1nnc(Cc2ccc(OC)c(OC)c2)s1 | -9.9 mV |  |
| 332 nM | Cc1cc(C)cc(/N=C2/NC(=O)/C(=C/c3ccc(O)cc3)S2)c1 | -8.6 mV |  |
| 138 nM | Nc1ccc([N+](=O)[O-])cc1-c1nc2ccccc2n(Cc2ccccc2)c1=O | -9.1 mV | EC50 [9]: ~200 nM |
